In general, Ki refers to the equilibrium dissociation constant of an inhibitor or competing ligand from its target.

These results are taken from ChEMBL document CHEMBL1154525, “Synthesis of 2-amino-5-benzoyl-4-(2-furyl)thiazoles as adenosine A(2A) receptor antagonists” (Bioorg Med Chem Lett, 2009).

The target in experiment [1] is T1, Adenosine receptor A1 (Homo sapiens, UniProt P30542).
T1 sequence (P30542 whole entry): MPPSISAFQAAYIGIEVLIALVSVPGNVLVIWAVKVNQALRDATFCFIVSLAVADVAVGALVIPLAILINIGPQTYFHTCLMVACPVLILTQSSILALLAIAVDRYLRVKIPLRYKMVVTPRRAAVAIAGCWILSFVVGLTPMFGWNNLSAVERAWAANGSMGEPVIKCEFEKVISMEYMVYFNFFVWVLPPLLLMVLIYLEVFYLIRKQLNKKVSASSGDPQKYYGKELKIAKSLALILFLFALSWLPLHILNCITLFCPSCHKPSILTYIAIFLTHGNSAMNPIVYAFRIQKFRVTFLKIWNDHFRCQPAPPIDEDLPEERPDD
In words: Displacement of [3H]DPCPX from human recombinant adenosine A1 receptor expressed in CHOK1 cells. The class given is cell-based, CHO-K1.

Experiment [2] is filed under the species Homo sapiens. As to the kind of experiment: Selectivity ratio of Ki for human recombinant adenosine A1 receptor to Ki for human recombinant adenosine A2A receptor.
Experiment [3] deals with Adenosine receptor A2a (Homo sapiens, UniProt P29274). As to the kind of experiment: Displacement of [3H]SCH-58261 from human recombinant adenosine A2A receptor expressed in HEK293 cells. The class given is cell-based.

SMILES strings stand for the structures.

Sequence of Adenosine receptor A2a (P29274 whole entry): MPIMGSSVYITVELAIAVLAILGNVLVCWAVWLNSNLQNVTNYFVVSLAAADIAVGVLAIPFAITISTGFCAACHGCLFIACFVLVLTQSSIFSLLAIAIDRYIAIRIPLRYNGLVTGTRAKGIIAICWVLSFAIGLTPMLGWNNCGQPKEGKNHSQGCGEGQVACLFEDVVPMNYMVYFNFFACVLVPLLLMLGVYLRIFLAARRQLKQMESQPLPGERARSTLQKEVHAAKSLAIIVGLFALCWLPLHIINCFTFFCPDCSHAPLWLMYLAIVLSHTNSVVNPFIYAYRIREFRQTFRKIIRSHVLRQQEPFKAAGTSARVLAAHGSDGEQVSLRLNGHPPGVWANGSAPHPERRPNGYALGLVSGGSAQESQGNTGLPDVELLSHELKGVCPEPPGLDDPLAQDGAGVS

As to `CN(CCc1cccs1)c1nc(-c2ccco2)c(C(=O)c2ccccc2)s1`, the Ki was more than 10000 nM in experiment [1] and 8170 nM in experiment [3]. For the same molecule, the Ratio Ki in experiment [2] was more than 1.2.
As to `O=C(c1ccccc1)c1sc(N(CCc2cccs2)Cc2ccccc2)nc1-c1ccco1`, the Ki is more than 10000 nM in experiment [1] and 7140 nM in experiment [3]. For the same molecule, the Ratio Ki in experiment [2] is more than 1.4.
The matching figures for `CC(=O)NCCNc1nc(-c2ccco2)c(C(=O)c2ccccc2)s1`: 2420 nM, 281 nM and 9.
The corresponding values for `CN(Cc1ccco1)c1nc(-c2ccco2)c(C(=O)c2ccccc2)s1` are 3420 nM, 160 nM and 21.
In the case of `O=C(c1ccccc1)c1sc(NCc2cccs2)nc1-c1ccco1`, the results for the Ki in experiment [1] and in experiment [3] were 2990 nM and 54 nM, respectively. Moreover, the Ratio Ki in experiment [2] amounted to 56.
The corresponding values for `O=C(c1ccccc1)c1sc(NCCCc2ccccc2)nc1-c1ccco1` are 6300 nM, 105 nM and 60.
The matching figures for `COCCNc1nc(-c2ccco2)c(C(=O)c2ccccc2)s1`: 6780 nM, 195 nM and 35.
`O=C(c1ccccc1)c1sc(NCCc2cccs2)nc1-c1ccco1`: the inhibition constant Ki in experiment [1] is more than 6700 nM; in experiment [3], 12 nM. In experiment [2], the Ratio Ki is more than 580.
Regarding `O=C(c1ccccc1)c1sc(NCCc2ccc3c(c2)OCO3)nc1-c1ccco1`, the inhibition constant (Ki) was found to be 3500 nM in experiment [1] and 61 nM in experiment [3]. For the same molecule, the Ratio Ki in experiment [2] was 58.
For the molecule `CNc1nc(-c2ccco2)c(C(=O)c2ccccc2)s1`, the Ki is 3580 nM in experiment [1] and 67 nM in experiment [3]. Further, the Ratio Ki in experiment [2] is 54.
The matching figures for `CN(Cc1ccccc1)c1nc(-c2ccco2)c(C(=O)c2ccccc2)s1`: 9460 nM, 2800 nM and 3.4.
Take `O=C(c1ccccc1)c1sc(N(Cc2ccccc2)Cc2ccco2)nc1-c1ccco1`: the inhibitory constant (Ki) in experiment [1] is more than 10000 nM; in experiment [3] it was 88 nM. Moreover, in experiment [2], the Ratio Ki is more than 115.
In the case of `O=C(c1ccccc1)c1sc(NCc2ccc(F)c(F)c2)nc1-c1ccco1`, the inhibition constant Ki was more than 7500 nM in experiment [1] and 64 nM in experiment [3]. Moreover, in experiment [2], the Ratio Ki was more than 120.
As for `CC(=O)N1CCC(Nc2nc(-c3ccco3)c(C(=O)c3ccccc3)s2)CC1`, the inhibitory constant (Ki) worked out at 1240 nM in experiment [1] and 455 nM in experiment [3]. Moreover, the Ratio Ki in experiment [2] is 3.
The corresponding values for `CN(C)c1nc(-c2ccco2)c(C(=O)c2ccccc2)s1` are more than 10000 nM, 6820 nM and more than 1.5.
The matching figures for `COC(C)CNc1nc(-c2ccco2)c(C(=O)c2ccccc2)s1` (configuration not stated): 3970 nM, 154 nM and 26.
The matching figures for `CC(C)CNc1nc(-c2ccco2)c(C(=O)c2ccccc2)s1`: 1280 nM, 89 nM and 14.
Consider `O=C(c1ccccc1)c1sc(NCc2ccco2)nc1-c1ccco1`, for which the inhibition constant Ki in experiment [1] stood at 1460 nM; in experiment [3], 43 nM. Further, the Ratio Ki in experiment [2] worked out at 35.
With `O=C(c1ccccc1)c1sc(NC2CCN(C(=O)c3ccccc3F)CC2)nc1-c1ccco1`, the Ki was found to be 3710 nM in experiment [1] and 105 nM in experiment [3]. Also, in experiment [2], the Ratio Ki worked out at 35.
